# Measured values taken from PubChem BioAssay AID2060616 (Molecular Pharmacology Branch, DTP, NCI, 2025).
# pIC50: −log10 of the molar value. Where “and” joins values, the source holds several entries; their conditions need not be identical. Equal entries are not always repeated.
# Tested on: 377384-186-R-J1-PDC complex spheroid viability
# Assay: Anticancer human tumor 377384-186-R-J1-PDC patient-derived pancreatic carcinoma cell line growth inhibition [CLK]
# Conditions: for viability, T/C: stronger effect = lower value
# Procedure, shortened: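 Multi-cell-type spheroids combined patient-derived tumor cells with HUVEC endothelial cells and human mesenchymal stem cells. Paired agents were dosed in half-log steps down from about clinical Cmax, or from 10 microM where Cmax was unknown.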
# [1] = curve of first compound, second compound 0.0316 µM
# [2] = curve of first compound, second compound 0.1 µM
# [3] = curve of first compound, second compound 0.316 µM
# [4] = curve of first compound, second compound 1 µM
# [5] = curve of first compound, second compound 3.16 µM
# [6] = curve of first compound, second compound 10 µM
# 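Further: spheroids exposed to agents for 7 days before reading.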
# 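Wherever viability, T/C is given: luminescence signal used as a stand-in for viable cells.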
compound,measurement,setting,value
CC(C)CC(NC(=O)C(Cc1ccccc1)NC(=O)c1cnccn1)B(O)O (stereo not drawn) + CN1CCN(c2cc(C(=O)Nc3cc4cc(-c5cnn(C)c5)ccc4cn3)ccn2)CC1,pIC50,[1],8.78
same,pIC50,[2],8.78
same,pIC50,[3],> 9.02
same,pIC50,[4],> 9.02
same,pIC50,[5],> 9.02
same,pIC50,[6],> 9.02
same,"viability, T/C","second compound 0.0316 µM, first compound 0.000949 µM",95.5%
same,"viability, T/C","second compound 0.0316 µM, first compound 0.003 µM",2.33%
same,"viability, T/C","second compound 0.0316 µM, first compound 0.00949 µM",0.36%
same,"viability, T/C","second compound 0.0316 µM, first compound 0.03 µM",0.23%
same,"viability, T/C","second compound 0.0316 µM, first compound 0.0949 µM",0.25%
same,"viability, T/C","second compound 0.0316 µM, first compound 0.3 µM",0.18%
same,"viability, T/C","second compound 0.1 µM, first compound 0.000949 µM",94.8%
same,"viability, T/C","second compound 0.1 µM, first compound 0.003 µM",1.28%
same,"viability, T/C","second compound 0.1 µM, first compound 0.00949 µM",0.36%
same,"viability, T/C","second compound 0.1 µM, first compound 0.03 µM",0.22%
same,"viability, T/C","second compound 0.1 µM, first compound 0.0949 µM",0.23%
same,"viability, T/C","second compound 0.1 µM, first compound 0.3 µM",0.22%
same,"viability, T/C","second compound 0.316 µM, first compound 0.000949 µM",22.2%
same,"viability, T/C","second compound 0.316 µM, first compound 0.003 µM",1.48%
same,"viability, T/C","second compound 0.316 µM, first compound 0.00949 µM",0.19%
same,"viability, T/C","second compound 0.316 µM, first compound 0.03 µM",0.21%
same,"viability, T/C","second compound 0.316 µM, first compound 0.0949 µM",0.28%
same,"viability, T/C","second compound 0.316 µM, first compound 0.3 µM",2.08%
same,"viability, T/C","second compound 1 µM, first compound 0.000949 µM",0.64%
same,"viability, T/C","second compound 1 µM, first compound 0.003 µM",0.47%
same,"viability, T/C","second compound 1 µM, first compound 0.00949 µM",0.35%
same,"viability, T/C","second compound 1 µM, first compound 0.03 µM",0.22%
same,"viability, T/C","second compound 1 µM, first compound 0.0949 µM",0.4%
same,"viability, T/C","second compound 1 µM, first compound 0.3 µM",0.32%
same,"viability, T/C","second compound 3.16 µM, first compound 0.000949 µM",1.01%
same,"viability, T/C","second compound 3.16 µM, first compound 0.003 µM",1.51%
same,"viability, T/C","second compound 3.16 µM, first compound 0.00949 µM",0.92%
same,"viability, T/C","second compound 3.16 µM, first compound 0.03 µM",0.56%
same,"viability, T/C","second compound 3.16 µM, first compound 0.0949 µM",0.48%
same,"viability, T/C","second compound 3.16 µM, first compound 0.3 µM",1.78%
same,"viability, T/C","second compound 10 µM, first compound 0.000949 µM",0.25%
same,"viability, T/C","second compound 10 µM, first compound 0.003 µM",0.32%
same,"viability, T/C","second compound 10 µM, first compound 0.00949 µM",0.24%
same,"viability, T/C","second compound 10 µM, first compound 0.03 µM",0.24%
same,"viability, T/C","second compound 10 µM, first compound 0.0949 µM",0.43%
same,"viability, T/C","second compound 10 µM, first compound 0.3 µM",1.64%
CC(C)CC(NC(=O)C(Cc1ccccc1)NC(=O)c1cnccn1)B(O)O (stereo not drawn),"viability, T/C",compound 0.000949 µM,76.6% and 65.6%
same,"viability, T/C",compound 0.003 µM,1.85% and 2.08%
same,"viability, T/C",compound 0.00949 µM,0.32% and 0.23%
same,"viability, T/C",compound 0.03 µM,0.26% and 0.38%
same,"viability, T/C",compound 0.0949 µM,0.18% and 0.14%
same,"viability, T/C",compound 0.3 µM,0.78% and 0.14%
same,pIC50,curve of compound,8.84 and 8.90
O=C(c1cc(Cc2n[nH]c(=O)c3ccccc23)ccc1F)N1CCN(C(=O)C2CC2)CC1 + CN1CCN(c2cc(C(=O)Nc3cc4cc(-c5cnn(C)c5)ccc4cn3)ccn2)CC1,pIC50,[1],< 5.00
same,pIC50,[2],5.18
same,pIC50,[3],> 7.50
same,pIC50,[4],> 7.50
same,pIC50,[5],> 7.50
same,pIC50,[6],> 7.50
same,"viability, T/C","second compound 0.0316 µM, first compound 0.0316 µM",87.8%
same,"viability, T/C","second compound 0.0316 µM, first compound 0.1 µM",85.3%
same,"viability, T/C","second compound 0.0316 µM, first compound 0.316 µM",81%
same,"viability, T/C","second compound 0.0316 µM, first compound 1 µM",77.7%
same,"viability, T/C","second compound 0.0316 µM, first compound 3.16 µM",65.1%
same,"viability, T/C","second compound 0.0316 µM, first compound 10 µM",52.7%
same,"viability, T/C","second compound 0.1 µM, first compound 0.0316 µM",83.9%
same,"viability, T/C","second compound 0.1 µM, first compound 0.1 µM",89.8%
same,"viability, T/C","second compound 0.1 µM, first compound 0.316 µM",77%
same,"viability, T/C","second compound 0.1 µM, first compound 1 µM",78.5%
same,"viability, T/C","second compound 0.1 µM, first compound 3.16 µM",63.3%
same,"viability, T/C","second compound 0.1 µM, first compound 10 µM",42.6%
same,"viability, T/C","second compound 0.316 µM, first compound 0.0316 µM",24%
same,"viability, T/C","second compound 0.316 µM, first compound 0.1 µM",32.5%
same,"viability, T/C","second compound 0.316 µM, first compound 0.316 µM",27.3%
same,"viability, T/C","second compound 0.316 µM, first compound 1 µM",27.1%
same,"viability, T/C","second compound 0.316 µM, first compound 3.16 µM",24.1%
same,"viability, T/C","second compound 0.316 µM, first compound 10 µM",22.7%
same,"viability, T/C","second compound 1 µM, first compound 0.0316 µM",1.23%
same,"viability, T/C","second compound 1 µM, first compound 0.1 µM",1.25%
same,"viability, T/C","second compound 1 µM, first compound 0.316 µM",1.1%
same,"viability, T/C","second compound 1 µM, first compound 1 µM",1.53%
same,"viability, T/C","second compound 1 µM, first compound 3.16 µM",1.47%
same,"viability, T/C","second compound 1 µM, first compound 10 µM",0.93%
same,"viability, T/C","second compound 3.16 µM, first compound 0.0316 µM",0.4%
same,"viability, T/C","second compound 3.16 µM, first compound 0.1 µM",0.39%
same,"viability, T/C","second compound 3.16 µM, first compound 0.316 µM",0.42%
same,"viability, T/C","second compound 3.16 µM, first compound 1 µM",0.45%
same,"viability, T/C","second compound 3.16 µM, first compound 3.16 µM",0.37%
same,"viability, T/C","second compound 3.16 µM, first compound 10 µM",1.27%
same,"viability, T/C","second compound 10 µM, first compound 0.0316 µM",0.42%
same,"viability, T/C","second compound 10 µM, first compound 0.1 µM",1.09%
same,"viability, T/C","second compound 10 µM, first compound 0.316 µM",1.28%
same,"viability, T/C","second compound 10 µM, first compound 1 µM",0.44%
same,"viability, T/C","second compound 10 µM, first compound 3.16 µM",0.49%
same,"viability, T/C","second compound 10 µM, first compound 10 µM",0.38%
COc1ccc([C@@H](O)c2cc(-c3ncnc4cc(N5CCOCC5)ccc34)c(F)cc2Cl)nn1,"viability, T/C",compound 0.0316 µM,88.4% and 91.3%
same,"viability, T/C",compound 0.1 µM,92.5% and 94.2%
same,"viability, T/C",compound 0.316 µM,73% and 78.6%
same,"viability, T/C",compound 1 µM,66.6% and 61.9%
same,"viability, T/C",compound 3.16 µM,59.3% and 44.2%
same,"viability, T/C",compound 10 µM,35.7% and 31%
same,pIC50,curve of compound,5.36 and 5.68
